Test results published in patent US20240382499A1, “INDUCERS OF SENESCENCE, IN COMBINATION WITH A SELECTIVE DEATH RECEPTOR 5 (DR5) AGONIST, FOR USE IN A METHOD OF TREATING CANCER” (Stichting Het Nederlands Kanker Instituut-Antoni van …, priority 2021, published 2024).
Residues, ends and D or L forms follow the SMILES beside them. *: point of attachment. Cbz = O=C(OCc1ccccc1)*; CH2F = FC*

What was measured:
[1] = test system: proliferating and senescent A549 cells; assay: Colony formation with low dose IgA-cona-dim, NEO2734 and Z-VAD-FMK; assay type: cell-based; conditions: 10 μM Z-VAD-FMK; alisertib-induced senescent A549
Method: (§1) FIG. 10: Colony formation in proliferating and alisertib-induced senescent A549 (A), Hep1 (B) and MM231 (C) cells with IgG1-cona or IgA-cona-dim DR5 agonist antibodies. Colony formation in proliferating and alisertib-induced senescent A549 cells treated with the low dose of 0.125 μg/ml IgA-cona-dim, 0.25 μM NEO2734 and 10 μM Z-VAD-FMK (D). Colony formation using low dose 0.25 μM of NEO2734 and 0.125 μg/ml IgA-cona-dim A549 cells made senescent by one-week treatment with 1 μM barasertib, 0.5 μM PF-06873600, 100 nM doxorubicin, 50 nM CFI-400945, 2 μM Etoposide or 1 μM TAS-119 (E).

[2] = test system: alisertib-induced senescent A549, Hep1 and MM231 cells; assay: Colony formation with IgG1-cona or IgA-cona-dim DR5 agonist antibodies; assay type: cell-based; conditions: side-by-side IgG1 and IgA-cona-dim forms of conatumumab
Method: as §1
Antibodies were generated by expression of SEQ 1 and SEQ 3 (IgG1-cona), SEQ 2 and SEQ 3 (IgA-cona), or SEQ 2, SEQ 3 and SEQ 4 (IgA-cona-dim) as described (Beyer et al., 2009. J Immunol Methods 346: 26-37), by employing the nucleotide sequences SEQ 5 and SEQ 6 (IgG1-cona), SEQ 6 and SEQ 7 (IgA-cona), or SEQ 6, SEQ 7 and SEQ 8 (IgA-cona-dim). SEQ 4 depicts a sequence of an immunoglobulin J chain, which links two or more IgA monomer units.

| Molecule | rescue from IgA-cona-dim plus NEO2734 mediated senolysis [1] | senolytic potency compared with IgG form [2] |
| --- | --- | --- |
| COC(=O)C[C@H](NC(=O)[C@H](C)NC(=O)[C@@H](NC(=O)OCc1ccccc1)C(C)C)C(=O)CF [Z-VAD-FMK] (Cbz-Val-Ala-Asp(OMe)-CH2F) | fully rescue the cells from senolysis |  |
| IgA-cona-dim: dimeric form of IgA-conatumumab, SEQ 2, SEQ 3 and SEQ 4 (J chain) |  | most potent DR5 agonist to eliminate senescent cells |
